We go through 1 compound from patent US9796962B2, “Method for generating pancreatic hormone-producing cells” (Kyoto University, priority 2013, dated 2017).

For test [1], the system named is Human iPS cell line 201B7. Nature of the test: Differentiation of 201B7 with 8 days step 3: marker gene PCR, immune staining, insulin amount. The class given is cell-based. On the procedure:
Human iPS cell line 201B7 was used. The cells were differentiated into insulin producing cells by the following steps. The colonies of the iPS cell line was grown to 80-90% confluence in the culture plate and dissociated from the dish by using CTK solution (Reprocell). The dissociated colonies were then divided into single cells using Accutase™ and seeded in 24 well plates (Greiner) at 2.0×10^5/well.
The cells were cultured in RPMI medium containing 1% B-27 added with activin A (100 ng/ml), CHIR99021 (1 μM) and Y-27632 (10 μM) for 2 days. Then, the cells were further cultured in RPMI medium containing 1% B-27 added with activin A (100 ng/ml) and CHIR99021 (1 μM) for more 3 days (Day 5). During this period, the medium was changed with the same fresh medium on the third (Day 3) and the fourth days (Day 4).
The cells obtained in Step 1 were cultured in improved MEM Zinc Option medium containing 1% B-27 added with dorsomorphin (1 μM), retinoic acid (2 μM), and SB431542 (10 μM) for 6 days (Day 11). During this period, the medium was changed with the same fresh medium every two days.
The cells obtained in Step 2 were cultured in improved MEM Zinc Option medium containing 1% B-27 added with forskolin (10 μM), nicotinamide (10 mM), dexamethasone (10 μM), ALK5 inhibitor II ((2-(3-(6-Methylpyridin-2-yl)-1H-pyrazol-4-yl)-1,5-naphthyridine)) (5 μM) and sodium cromoglicate (10 mM) for more 8 days (Day 19). During this period, the medium was changed with the same fresh medium every four days.
The cells at each step were collected, i.e. on Day 0, Day 5, Day 11 and Day 19, and the expressions of marker genes were determined by PCR (FIG. 5B). In the group where cells were cultured in the presence of sodium cromoglicate in step 3, the expression of NGN3 and GHRE (Ghrelin) were confirmed. The expression of SST (somatostatin) in the group where cells were cultured in the presence of sodium cromoglicate in step 3 was higher than that in the group where cells were cultured in the absence of sodium cromoglicate.
Further, the cells were subjected to immune staining and confirmed the production of proteins corresponding to the marker genes (FIG. 5C). The amount of insulin produced by the cells obtained by culturing the cells in the presence of sodium cromoglicate in step 3 and that produced by the cells obtained by culturing in the absence of sodium cromoglicate were compared, and the amount of insulin produced by the cells obtained with sodium cromoglicate was higher than that produced by the cells obtained without sodium cromoglicate (FIG. 5D).
The cells were subjected to immune staining and the production of pancreatic hormones was confirmed (FIGS. 6A and 6B).

For test [2], the system named is Human iPS cell line 201B7. As to the kind of experiment: Differentiation of human iPS cell line 201B7 into insulin producing cells (step 3 with 4 factors), flow cytometry. In kind it is cell-based. On the procedure: Human iPS cell line 201B7 (this cell line can be obtained from Center for iPS Cell Research And Application, Kyoto University, Takahashi K et al, Cell. 2007 131:861-72., the contents of this document is incorporated herein by reference) was used. The iPS cells were differentiated into insulin producing cells by using the following steps. The colonies of the iPS cell line were grown to 70% confluent in the culture plate and dissociated from the plate by using CTK solution (Reprocell). The dissociated colonies were then divided into single cells using Accutase™ and seeded in 24 well plates (Greiner) at 2.0×10^5/well. The cells were cultured in RPMI medium containing 2% FBS added with activin A (100 ng/ml) and CHIR99021 (3 μM) for 5 days. During this period, the medium was changed with the same fresh medium on the third and the fourth days. The cells obtained in Step 1 were cultured in improved MEM Zinc Option medium containing 1% B-27 (Invitrogen Corp.) added with dorsomorphin (1 μM), retinoic acid (2 μM), and SB431542 (10 μM) for 6 days. During this period, the medium was changed with the same fresh medium every two days. The cells obtained in Step 2 were cultured in improved MEM Zinc Option medium containing 1% B-27 (Invitrogen Corp.) added with forskolin (10 μM), nicotinamide (10 mM), dexamethasone (10 μM), ALK5 inhibitor II ((2-(3-(6-methylpyridin-2-yl)-1H-pyrazol-4-yl)-1,5-naphthyridine)) (5 μM) and sodium cromoglicate (0.001 mM, 0.01 mM, 0.1 mM, 1 mM, 5 mM, 10 mM or 20 mM) for more 12 days. During this period, the medium was changed with the same fresh medium every four days. The obtained cells analyzed using flow cytometry to determine the number of insulin producing cells in the same manner as Example 1. The addition of 1 mM or more sodium cromoglicate in the culture medium increased the ratio of insulin positive cells and the maximum insulin positive cell-ratio was obtained when 10 mM sodium cromoglicate was added (FIG. 1A). Insulin production was confirmed by immune staining of the cells (FIG. 1B). Further, cells were stained with anti-human C-peptide antibody (Peninsula Laboratories LLC.) and analyzed by flow cytometry to see the production of C-peptide which is obtained by processing of pro-insulin. […] The highest ratio of the insulin positive cells was obtained by 12 days-culture in step 3. […] (FIG. 2B) Cells from cell line 201B7 were subjected to steps 1 and 2 in the same manner as above and cultured for 12 days in step 3. The obtained cells were stained with Ki67 and the ability of the cells to proliferate was evaluated. […] In addition, the obtained cells were treated by using BD Cytofix/Cytoperm™ Kit and stained with monoclonal anti-glucagon clone K79bB10 (SIGMA). The cells were analyzed by flow cytometry to determine the number of the glucagon positive cells.
A general note: Flow cytometry measures light scatter and fluorescence of single cells or particles in a stream.

The test system of test [3] is cell line 201B7. As to the kind of experiment: Ki67 staining, ability of differentiated cells to proliferate. The class given is cell-based, human. Conditions: 10 mM, 12 days in step 3, FIG. 3. As for the experimental part: Cells from cell line 201B7 were subjected to steps 1 and 2 in the same manner as above and cultured for 12 days in step 3. The obtained cells were stained with Ki67 and the ability of the cells to proliferate was evaluated. […] In addition, the obtained cells were treated by using BD Cytofix/Cytoperm™ Kit and stained with monoclonal anti-glucagon clone K79bB10 (SIGMA). The cells were analyzed by flow cytometry to determine the number of the glucagon positive cells.

[4] abbreviates: PCR, 10 mM in step 3, 8 days, FIG. 5B.
The mark [5] stands for this setting: immune staining, Day 19, FIGS. 6A and 6B.

Structures can show the parent of a compound that is named as a salt.

Consider `O=C(O)c1cc(=O)c2c(OCC(O)COc3cccc4oc(C(=O)O)cc(=O)c34)cccc2o1` [sodium cromoglicate, sodium salt of 1,3-Bis(2-carboxychromon-5-yloxy)-2-hydroxypropane], for which, in test [1] (Day 19, 4Fs plus sodium cromoglicate vs 4Fs, FIG. 5D), the “amount of insulin produced by the cells, presence vs absence” value was “higher”. In addition, in test [1] (setting [4]), the “expression of GHRE (Ghrelin)” value is “confirmed”; the “expression of NGN3” value is “confirmed”; the “expression of SST (somatostatin), presence vs absence” value is “higher”. In test [1] (setting [5]), the expression of glucagon result is reported as “increased”, the expression of insulin result is recorded as “increased” and the expression of somatostatin entry is given as “increased”. The “ratio of insulin positive cells by culture period in step 3” value in test [2] (10 mM, 8, 12 and 16 days in step 3, FIG. 2B) was “increased in the groups cultured for 8 days, 12 days and 16 days”. The “effect on ratio of insulin positive cells, 4 days in step 3” value in test [2] (10 mM, 4 days in step 3, FIG. 2B) is “also confirmed, although the efficiency was low”. Moreover, the “ratio of insulin positive cells” value in test [2] (10 mM, 12 days in step 3, FIG. 4) was “increased the ratio of both insulin positive cells and glucagon positive cells”. For the same compound, the “ratio of glucagon positive cells” value in test [2] (10 mM, 12 days in step 3, anti-glucagon flow cytometry, FIG. 4) was “increased the ratio of both insulin positive cells and glucagon positive cells”. Also, the “culture period in step 3 giving the highest ratio of insulin positive cells” value in test [2] (10 mM, FIG. 2B) is recorded as 12 days. Moreover, the “production of C-peptide” value in test [2] (anti-human C-peptide antibody, flow cytometry, FIG. 1C) is recorded as “increased by addition of sodium cromoglicate in a dose dependent manner”. For the same compound, in test [2] (step 3 12 days, FIG. 1A), the “concentration giving the maximum insulin positive cell-ratio” value amounted to 10 mM and the “concentration in the culture medium that increased the ratio of insulin positive cells” value was no less than 1 mM. Besides, the “number of Ki67 positive cells, presence vs absence” value in test [3] is on record as “no substantial difference”.
